Results: patent US8735443B2, “Method of treating diabetes-related vascular complications” (Kuwait University, priority 2008, dated 2014)

Tests used:
diabetic fibroblasts [1] = experiment: Inflammatory cytokine transcription in fibroblasts, RT-PCR; format: cell-based, rat; details: lipoic acid 500 μM, Nrf2-dependent
From the text: (§1) To determine the effect of α-lipoic acid on isolated cells from normal and diabetic rats, primary rat fibroblasts were derived from dorsal skin biopsies performed on four diabetic Coto Kakizaki rats (DFs) and four age-matched (12-14 months) and sex-matched (female) Wistar control rats (CFs). After sterilization in povidine solution, the rat skin was washed in sterile water and rinsed in 70% ethanol in phosphate-buffered saline (PBS). The epidermis and dermis were separated following overnight incubation in 0.25% Trypsin/EDTA at 4° C. Samples were washed, diced and digested for thirty minutes at 37° C. in collagenase type I (250 U/ml) dissolved in Dulbecco's modified Eagle medium (DMEM; Invitrogen) containing penicillin (100 U/ml), 2 mM L-glutamine and 26 mM HEPES. After collagenase treatment, the cells were dislodged, centrifuged and resuspended in medium supplemented with 10% fetal bovine serum. […]
With regard to cytokine transcription levels, Total RNA was isolated from cultured fibroblasts using Trizol reagent (Invitrogen) and 1 μg from each sample was reverse transcribed for 1 hr at 37° C. using the High Capacity cDNA Reverse Transcription Kit. Real-time quantitative RT-PCR was performed with the TaqMan Gene Expression Assay and was normalized against […] using an ABI 7900 Real-time PCR System (Applied Biosystems). […]

NF-κB = experiment: Aortic nuclear NF-κB, western blotting; format: in vivo, rat; details: GK rats, LA chronic therapy
Procedure: For detection of caspase 3-like activity, protein was isolated and caspase activity was detected in resulting supernatant using an APO-ONE homogenous caspase 3/7 assay (Promega). With regard to subcellular fractionation and western blotting, aortic tissue nuclear extracts were prepared and protein (40 μg) was loaded in each well of […] polyacrylamide gel. Separated polypeptide was transferred to nitrocellulose membrane IBio-Rad) and probed with anti NFκB at a 1:2,000 […]. Chemiluminescent detection was performed by an ECL Western Blotting Detection Kit®.
It is well known that TNF-α enhances the activity of NF-κB, most probably via H202 mediated mechanisms. Using data showing that both TNF-α and H202 levels were elevated in diabetic vascular tissues, NF-κB activity was assessed using a western blotting-based technique with an antibody (anti P65) that specifically recognizes the active form of this transcription factor. […] Nuclear localization of NF-κB in aortic tissues was determined using differential centrifugation and western blotting-based techniques.

aortic tissues = experiment: Apoptotic cell death ELISA, cytoplasmic histone-associated DNA fragments in aorta; format: in vivo, rat
Procedure: With regard to the assessment of apoptotic cell death using enzyme-linked immuno-absorbent-based assay, aortic tissues derived from control, GK and LA-treated GK rats were lysed and cytoplasmic histone-associated DNA fragments, indicating apoptotic cell death were determined by the Cell Death ELISA® plus kit. Data are reported as arbitrary optical density units normalized to protein concentration.

[2] = test system: thiobarbituric acid reactive substances; experiment: Aortic content of TBARS (lipid peroxidation); format: in vivo, rat; details: aorta of LA-treated GK rats
Procedure: With regard to lipid peroxidation, aortic tissues were homogenized in ice-cold tris-hydrochloric acid/buffer (pH 7.4) and butylated hydroxytoluene (BHT). Homogenates were centrifuged at 3,000×g at 4° C. for 10 min. An aliquot of the supernatant was combined with N-methyl-2-phenylindol (10.3) mmol/l in acetonitrile and methanol in the presence of methane sulfonic acid and BHT and the amount of malondialdehyde and 4-hydroxy-2-nonenal was assessed.

HEK-499 cells = experiment: Viability of cells exposed to cisplatin; format: cell-based; details: 500 microMolar α-lipoic acid in the media prior to cisplatin at variable doses
From the text: Alpha-lipoic acid increased HEK-499 cells, which were engineered to be resistant to chemotherapies and radiotherapies by depleting Raf Kinase inhibitory protein resistance to lethal doses of cisplatin, a chemical used in cancer therapy.

diabetic fibroblasts [3] = experiment: Inflammatory cytokine release by fibroblasts, ELISA; format: cell-based, rat; details: lipoic acid 500 μM, Nrf2-dependent
From the text: as §1
With regard to ELISA assays to determine cytokine expression levels, control and diabetic fibroblasts were seeded on a 6-well plate at 2.5×10^5 cells/well. […] After incubation for 16 hr, supernatants were collected and analyzed for key inflammatory cytokines, including TNF-α, IL-1β, fractalkine and monocyte chemoattractant protein-1 (MCP-1) using commercially available ELISA kits specific for rats and according to the protocols provided by the manufacturers (R&D and Ray Biotech). […]

SMILES: O=C(O)CCCCC1CCSS1 (stereo not drawn) [LA, alpha-lipoic acid]
- transcription of inflammatory cytokines in diabetic fibroblasts (diabetic fibroblasts [1]): decreases
- high NF-κB level in vascular diabetic nuclei (NF-κB): reversed
- reduction of DNA fragmentation rate in diabetic arteries (aortic tissues; chronic LA treatment, GK rats): 42%
- LA-mediated antiapoptotic effect after discontinuation (aortic tissues; two weeks after discontinuation of therapy): markedly reduced
- oxidative stress-mediated damage to lipid (TBARS) [2]: partially reversed
- protection of cells from lethal doses of cisplatin (HEK-499 cells): significantly protected
- release of inflammatory cytokines by diabetic fibroblasts (diabetic fibroblasts [3]): ameliorated
